The target in this test is T1, Nitric oxide synthase, inducible (Mus musculus, UniProt P29477).
T1 sequence (P29477 whole entry): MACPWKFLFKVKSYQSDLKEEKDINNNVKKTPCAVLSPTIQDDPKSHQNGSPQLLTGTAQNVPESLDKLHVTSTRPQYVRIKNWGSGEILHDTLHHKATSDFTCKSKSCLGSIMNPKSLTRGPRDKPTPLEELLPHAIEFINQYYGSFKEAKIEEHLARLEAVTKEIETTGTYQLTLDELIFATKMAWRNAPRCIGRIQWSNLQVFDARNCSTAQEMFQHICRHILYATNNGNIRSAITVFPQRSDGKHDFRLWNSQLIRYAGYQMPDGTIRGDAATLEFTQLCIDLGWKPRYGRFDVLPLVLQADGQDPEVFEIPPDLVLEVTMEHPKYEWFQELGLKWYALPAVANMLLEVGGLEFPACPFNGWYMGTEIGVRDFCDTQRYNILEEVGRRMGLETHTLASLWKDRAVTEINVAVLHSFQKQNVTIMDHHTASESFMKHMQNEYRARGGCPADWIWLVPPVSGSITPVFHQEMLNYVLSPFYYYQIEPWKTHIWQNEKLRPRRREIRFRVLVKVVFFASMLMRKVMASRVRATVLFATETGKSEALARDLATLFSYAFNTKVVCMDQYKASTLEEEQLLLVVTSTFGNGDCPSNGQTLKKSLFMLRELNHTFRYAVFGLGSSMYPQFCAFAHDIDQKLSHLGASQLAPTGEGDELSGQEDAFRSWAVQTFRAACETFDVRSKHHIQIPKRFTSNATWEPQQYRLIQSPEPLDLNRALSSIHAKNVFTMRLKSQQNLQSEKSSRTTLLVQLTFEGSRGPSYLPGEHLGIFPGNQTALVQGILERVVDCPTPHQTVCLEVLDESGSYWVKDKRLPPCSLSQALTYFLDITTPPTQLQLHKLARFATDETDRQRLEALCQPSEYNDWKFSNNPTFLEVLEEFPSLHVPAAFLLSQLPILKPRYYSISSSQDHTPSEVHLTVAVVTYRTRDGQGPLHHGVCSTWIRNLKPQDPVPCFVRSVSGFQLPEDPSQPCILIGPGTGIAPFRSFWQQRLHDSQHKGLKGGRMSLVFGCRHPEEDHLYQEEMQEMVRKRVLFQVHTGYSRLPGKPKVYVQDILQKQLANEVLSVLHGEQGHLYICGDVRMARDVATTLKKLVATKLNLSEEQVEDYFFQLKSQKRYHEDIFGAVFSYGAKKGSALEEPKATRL
Put plainly: Hemoglobin Assay. Particulars: pH 7.4. How it is done: The final volume was adjusted to 600 μL with 100 mM Hepes buffer (pH 7.4).
With `N=CNCCC[C@H](N)C(=O)O` [(S)-2-Amino-5-formimidamidopentanoic acid (7)], the IC50 – broadly, the concentration needed to halve the response being measured – turned out to be 0.4 µM and the affinity, expressed as Ki, was 0.18 µM.
Take `CC(C)C(=N)NCCC[C@H](N)C(=O)O` [(S)-2-Amino-5-isobutyrimidamidopentanoic acid (10)]: inhibition was half-maximal at 138 µM (IC50) and the Ki (usually the equilibrium dissociation constant of an inhibitor or competing ligand from its target) was 65.2 µM.
Turning to `CC(C)(C)C(=N)NCCC[C@H](N)C(=O)O` [(S)-2-Amino-5-pivalimidamidopentanoic acid (12)], the IC50 was 323 µM and the affinity, expressed as Ki, was 146 µM.
Compound `CCCC(=N)NCCC[C@H](N)C(=O)O` [(S)-2-Amino-5-butyrimidamidopentanoic acid (9)] came in with an IC50 of 19.1 µM and a Ki of 8.61 µM.
The matching figures for `CCC(=N)NCCC[C@H](N)C(=O)O` [(S)-2-Amino-5-propionimidamidopentanoic acid (8)]: 16.1 µM and 7.25 µM.
Consider `CC(=N)NCCC[C@H](N)C(=O)O` [(S)-5-Acetimidamido-2-aminopentanoic acid (4, L-NIO)], for which half-maximal inhibition (IC50) required 8.1 µM.

Values taken from BindingDB's records for doi:10.1021/acs.biochem.5b00135 (Northwestern University, 2015).
